Reference: US11014896B2, “TRPA1 and TRPV4 inhibitors and methods of using the same for organ-specific inflammation and itch” (Duke University, priority 2014, dated 2021)
“Also recorded” adds a separate entry of the source. Where a SMILES comes first, the peptide text is derived from it. [ ]: non-standard residue; d: D form.

How the values were obtained:
human TRPV3 = target: T1, human TRPV3 (Homo sapiens, UniProt Q8NET8); assay: Ca2+ signal in N2a cells transfected with human TRPV3; format: cell-based; conditions: stimulation with camphor
T1 construct: expressed in transfected cells; host or cells: N2a cells
T1 sequence (Q8NET8 1-790): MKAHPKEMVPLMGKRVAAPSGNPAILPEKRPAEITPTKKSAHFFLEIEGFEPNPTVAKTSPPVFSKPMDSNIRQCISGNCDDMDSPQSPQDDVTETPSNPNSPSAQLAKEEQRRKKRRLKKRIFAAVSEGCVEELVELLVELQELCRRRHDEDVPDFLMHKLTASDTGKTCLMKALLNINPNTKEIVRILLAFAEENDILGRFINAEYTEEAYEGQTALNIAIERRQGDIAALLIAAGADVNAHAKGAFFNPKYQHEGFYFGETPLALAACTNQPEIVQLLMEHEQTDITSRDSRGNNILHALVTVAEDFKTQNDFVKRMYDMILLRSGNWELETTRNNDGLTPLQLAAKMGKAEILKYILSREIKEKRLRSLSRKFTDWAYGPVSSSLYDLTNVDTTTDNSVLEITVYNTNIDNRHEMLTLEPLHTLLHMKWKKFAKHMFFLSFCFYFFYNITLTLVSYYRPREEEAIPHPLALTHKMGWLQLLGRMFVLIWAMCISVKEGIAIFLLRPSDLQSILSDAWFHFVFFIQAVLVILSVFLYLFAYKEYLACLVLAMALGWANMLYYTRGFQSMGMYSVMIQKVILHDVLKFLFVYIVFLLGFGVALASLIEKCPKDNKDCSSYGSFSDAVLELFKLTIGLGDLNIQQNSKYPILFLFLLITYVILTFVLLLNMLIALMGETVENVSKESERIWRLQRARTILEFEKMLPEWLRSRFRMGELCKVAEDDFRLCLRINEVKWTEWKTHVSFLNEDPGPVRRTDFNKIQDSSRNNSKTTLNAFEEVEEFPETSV
Description: (§1) Compounds were tested for their effect on TRPV1, TRPV2, and TRPV3. Methods were similar to those described in Example 15. Briefly, N2a cells were transfected with human TRPV1, TRPV2, or TRPV3. eGFP-transfection was used as control. For specific stimulation of TRPV1, 5 μM capsaicin was used. For stimulation of TRPV2, hypotonicity (260 mosmol/L) was used, based on previous reports of TRPV2 being osmotically responsive. N2a cells were not responsive to hypotonicity, and neither were control-transfected cells. For TRPV3-expressing cells, camphor (20% of a commercially available stock solution) was used. […] Stimulation and control protocols were applied as for TRPA1-expressing N2a cells as detailed above in Example 15.

human TRPA1 = target: T2, human TRPA1 (Homo sapiens, UniProt O75762); assay: Ca2+ transient in N2a cells transfected with human TRPA1; format: cell-based; conditions: 5 μM compound
T2 construct: expressed in transfected cells; host or cells: N2a cells, pcDNA3.1 plasmid, co-transfected with an eGFP plasmid
Description: Compounds were tested for their effect on TRPA1. N2a permanent cells were transfected with human TRPA1 cDNA, using a pcDNA3.1 expression plasmid. They were co-transfected with eGFP-expressing plasmid, or, for control, with eGFP plasmid only.

human TRPV2 = target: T3, human TRPV2 (Homo sapiens, UniProt Q9Y5S1); assay: Ca2+ signal in N2a cells transfected with human TRPV2; format: cell-based; conditions: stimulation with hypotonicity (260 mosmol/L)
T3 construct: expressed in transfected cells; host or cells: N2a cells
T3 sequence (Q9Y5S1 1-764): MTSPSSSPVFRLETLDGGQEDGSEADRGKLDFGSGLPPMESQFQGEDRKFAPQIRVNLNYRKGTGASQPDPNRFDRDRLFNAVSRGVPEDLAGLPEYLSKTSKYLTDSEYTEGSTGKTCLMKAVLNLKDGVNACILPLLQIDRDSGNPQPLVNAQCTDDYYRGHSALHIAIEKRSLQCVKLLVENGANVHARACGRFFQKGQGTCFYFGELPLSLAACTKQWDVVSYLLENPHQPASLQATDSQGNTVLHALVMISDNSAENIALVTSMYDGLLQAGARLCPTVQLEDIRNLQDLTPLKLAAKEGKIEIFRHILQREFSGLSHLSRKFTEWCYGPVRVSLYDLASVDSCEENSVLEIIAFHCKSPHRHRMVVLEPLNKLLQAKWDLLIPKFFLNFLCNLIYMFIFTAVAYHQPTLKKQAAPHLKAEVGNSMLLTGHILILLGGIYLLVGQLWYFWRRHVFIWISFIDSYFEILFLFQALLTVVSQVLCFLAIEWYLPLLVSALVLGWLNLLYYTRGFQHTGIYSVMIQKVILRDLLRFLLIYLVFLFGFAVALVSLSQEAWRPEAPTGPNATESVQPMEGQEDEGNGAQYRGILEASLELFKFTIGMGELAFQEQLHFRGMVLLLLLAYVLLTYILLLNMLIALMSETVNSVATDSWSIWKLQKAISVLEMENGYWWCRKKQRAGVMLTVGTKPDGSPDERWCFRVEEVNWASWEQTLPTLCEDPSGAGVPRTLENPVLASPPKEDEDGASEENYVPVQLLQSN
Description: as §1

TRPV4 = TRPV4 (Homo sapiens, UniProt Q9HBA0); assay: TRPV4-mediated calcium influx in N2a cells with targeted expression of human TRPV4; format: cell-based; set-up: expressed in transfected cells; host or cells: N2a cells; conditions: 2.5 μM inhibitor, pre-incubation 10 min; TRPV4 activated with 10 nM GSK101
Description: Compounds (GSK205, 16-12, 16-13, 16-14, 16-18, 16-8, and 16-8/18hy) were tested for their effect on TRPV4-mediated calcium influx in N2a cultured cells with targeted expression of human TRPV4. Ca2+ imaging was performed according to Li et al. (Environ. Health Perspect. 2011, 119, 784-93) and Moore et al. (Proc. Natl. Acad. Sci. U.S.A. 2013, 110, E3225-E3234). Briefly, Ca2+ imaging of primary mouse epidermal keratinocytes (1° MK) in response to chemical activation of TRPV4 was conducted after loading with 2 μM fura2-AM, following a ratiometric Ca2+-imaging protocol with 340/380 nm blue light for dual excitation. Ratios of emissions were acquired at 0.5 Hz. ΔR/R0 was determined as the fraction of the increase of a given ratio over baseline ratio, divided by baseline ratio. For stimulation of cells with UVB, where fura-2 was not suitable because of the proximity of stimulation with 340/380 nm vs. 295 nm, 2 μM fluo4-AM was used instead. Ca2+ imaging was carried out at 488 nm excitation, acquisition of emissions at 0.5 Hz, expressed as ΔF/F0. TRPV4 was activated with 10 nM GSK101, a specific activator, which had no effect on RFP-transfected cells. Each of the […] compounds were added to a concentration of 2.5 μM, and its effect was observed.

human TRPV1 = target: T4, human TRPV1 (Homo sapiens, UniProt Q8NER1); assay: Ca2+ signal in N2a cells transfected with human TRPV1; format: cell-based; conditions: stimulation with 5 μM capsaicin
T4 construct: expressed in transfected cells; host or cells: N2a cells
Description: as §1

[1] = Formalin-evoked nocifensive (rubbing) behavior, whisker-pad injection, in vivo pain model in mice; set-up: species or system mouse
Description: Compounds were tested for their effect in reducing pain using an in vivo pain model in mice. For mouse formalin-evoked irritant behavior measurements, mice were well-fed, well-rested, and tested at the same time of day, at the same time-point of their circadian rhythm. They were allowed to acclimate to a plexiglas chamber for at least 30 min before testing, and received 10 μL subcutaneous injection of 4% of formalin (diluted from an aqueous solution of commercial 37% formaldehyde with normal saline (NS)) through a 30-gauge needle into the right whiskerpad, as further detailed in Luccarini et al. (J. Pain, 2006, 7, 908-914). Normal saline was used as control injection. After injection, mice were immediately placed back into the chamber and the rubbing behavior was recorded by a private consumer-type video-camera for a 45 min observation period. The recording time was divided into 9 blocks of 5 min, and a nociceptive score was determined per block by measuring the time that the animals spent rubbing the injected area predominantly with the ipsilateral fore-paw and rarely with hind-paw. This rubbing behavior with fore-paw is evoked by pain, which is distinct from itch behavior. Behavioral analysis was conducted by observers blinded to treatment.
To investigate the effects of the specific compounds GSK205, 16-8, and 16-8/18hy on formalin-induced nociceptive behavior, mice received a single subcutaneous injection of the compounds into the whiskerpad (10 μL, dissolved in 4% DMSO) 15 min before formalin injection. Control animals received the same volume of NS, 4% DMSO.

[2] = system: primary mouse keratinocytes (1° MK); assay: UVB-evoked Ca++ signaling in primary mouse keratinocytes (fluo-4 imaging); format: cell-based; conditions: for ET1-augmented, UVB-induced Ca++ transients: UVB and ET1 co-exposure; for UVB-evoked Ca++ signaling (ΔF/F0): GSK205 20 μM
Description: Ca++ imaging of 1° MK was conducted following routine procedures. For UVB stimulation, a customized device was built. The system comprised a printed circuit board for electrical interconnects and mechanical support and an ultraviolet light-emitting diode (UV LED).
The operating wavelength was 295 nm (FIG. 2A), with a full-width half-max of 12 nm. The optical power was 500 mW. The focal point was aimed at the plane of the upper surface of the quartz coverslip, which was used to minimize UV absorption along the optical path towards the cells (FIG. 2A-FIG. 2C). The optical intensity at the focal point was estimated to be 150 mW/mm^2.
Ca++ imaging of mouse 1° MK in response to chemical activation of TRPV4 was conducted after loading with 2 μM fura2-AM, following a ratiometric Ca2+ imaging protocol with 340/380 nm […] for dual excitation. Ratios of emissions were acquired at 0.5 Hz. ΔR/R0 was determined as the fraction of the increase of a given ratio over baseline ratio, divided by baseline ratio. For stimulation of cells with UVB, where fura-2 was not suitable because of the proximity of stimulation with 340/380 nm and 295 nm, 2 μM fluo4-AM was used instead. Ca++ imaging was carried out at 488 nm excitation, acquisition of emissions at 0.5 Hz, expressed as ΔF/F0. In the custom-built UV optical system, UV LEDs were capped with a ball lens, a transparent optical window in the shape of a hemispherical lens (FIG. 2B). The LED output optical beam focused at 15-20 mm from the lens, with a spot diameter of approximately 1.5-2.0 mm (FIG. 2C). […] The thermal equilibration stage was set for physiological temperature.

ET1 [3] = assay: ET1 secretion by non-stimulated 1° MK (ELISA); format: cell-based, mouse
ET1 [4] = assay: ET1 expression by UVB-exposed 1° MK (immunocytochemistry); format: cell-based, mouse; conditions: cells preincubated with inhibitor
Description: 1° MK were exposed to UVB using the UV optical system (295 nm LED). 24 hours later the cells were fixed and fluorescently immunolabeled for ET1. Digital images were captured and subjected to morphometry.
Mouse keratinocytes were cultured on collagen coated quartz coverslips and then stimulated from the bottom using the previously mentioned UV optical system using the 295 nm LED. 24 hours later the cells were fixed in 4% formaldehyde in PBS for 20 minutes, permeabilized with 0.1% Triton X-100 in PBS for 10 minutes, washed, then blocked in 10% normal goat serum in PBS for 45 minutes. Coverslips were incubated overnight with primary antibody mouse anti-ET1 (1:200; Abcam), washed three times in PBS and incubated with secondary antibody for 2 hours at 25° C. Coverslips were washed three times in PBS, once with double-distilled H2O. Digital images were captured using a 40× immersion lens on the BX61 Olympus upright microscope. Morphometric analysis was conducted using ImageJ freeware with tailored regions-of-interest.

TRPV4, sequence (Q9HBA0 whole entry): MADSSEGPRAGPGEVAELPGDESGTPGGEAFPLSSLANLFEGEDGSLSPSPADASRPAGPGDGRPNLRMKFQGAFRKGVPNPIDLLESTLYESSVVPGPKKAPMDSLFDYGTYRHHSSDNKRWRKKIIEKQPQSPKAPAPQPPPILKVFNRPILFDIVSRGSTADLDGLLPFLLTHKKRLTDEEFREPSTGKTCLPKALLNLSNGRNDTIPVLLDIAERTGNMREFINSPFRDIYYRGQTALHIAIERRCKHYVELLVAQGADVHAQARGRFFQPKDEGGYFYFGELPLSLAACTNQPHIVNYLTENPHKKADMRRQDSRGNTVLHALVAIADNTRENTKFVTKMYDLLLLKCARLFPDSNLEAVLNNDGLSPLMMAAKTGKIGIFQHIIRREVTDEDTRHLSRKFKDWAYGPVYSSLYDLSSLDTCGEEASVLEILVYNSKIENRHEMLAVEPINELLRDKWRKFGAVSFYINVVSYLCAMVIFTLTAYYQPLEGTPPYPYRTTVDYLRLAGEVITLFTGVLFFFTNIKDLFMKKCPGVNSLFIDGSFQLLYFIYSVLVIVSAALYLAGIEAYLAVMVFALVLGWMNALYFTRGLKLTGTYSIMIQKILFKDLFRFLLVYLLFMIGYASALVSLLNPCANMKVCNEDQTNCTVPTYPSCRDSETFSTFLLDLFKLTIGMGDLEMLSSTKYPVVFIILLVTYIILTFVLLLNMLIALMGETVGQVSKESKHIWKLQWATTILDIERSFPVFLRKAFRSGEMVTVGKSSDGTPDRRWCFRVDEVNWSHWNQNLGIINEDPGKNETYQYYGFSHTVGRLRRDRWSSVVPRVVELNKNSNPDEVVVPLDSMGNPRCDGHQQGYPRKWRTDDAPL
T2 sequence (O75762 whole entry): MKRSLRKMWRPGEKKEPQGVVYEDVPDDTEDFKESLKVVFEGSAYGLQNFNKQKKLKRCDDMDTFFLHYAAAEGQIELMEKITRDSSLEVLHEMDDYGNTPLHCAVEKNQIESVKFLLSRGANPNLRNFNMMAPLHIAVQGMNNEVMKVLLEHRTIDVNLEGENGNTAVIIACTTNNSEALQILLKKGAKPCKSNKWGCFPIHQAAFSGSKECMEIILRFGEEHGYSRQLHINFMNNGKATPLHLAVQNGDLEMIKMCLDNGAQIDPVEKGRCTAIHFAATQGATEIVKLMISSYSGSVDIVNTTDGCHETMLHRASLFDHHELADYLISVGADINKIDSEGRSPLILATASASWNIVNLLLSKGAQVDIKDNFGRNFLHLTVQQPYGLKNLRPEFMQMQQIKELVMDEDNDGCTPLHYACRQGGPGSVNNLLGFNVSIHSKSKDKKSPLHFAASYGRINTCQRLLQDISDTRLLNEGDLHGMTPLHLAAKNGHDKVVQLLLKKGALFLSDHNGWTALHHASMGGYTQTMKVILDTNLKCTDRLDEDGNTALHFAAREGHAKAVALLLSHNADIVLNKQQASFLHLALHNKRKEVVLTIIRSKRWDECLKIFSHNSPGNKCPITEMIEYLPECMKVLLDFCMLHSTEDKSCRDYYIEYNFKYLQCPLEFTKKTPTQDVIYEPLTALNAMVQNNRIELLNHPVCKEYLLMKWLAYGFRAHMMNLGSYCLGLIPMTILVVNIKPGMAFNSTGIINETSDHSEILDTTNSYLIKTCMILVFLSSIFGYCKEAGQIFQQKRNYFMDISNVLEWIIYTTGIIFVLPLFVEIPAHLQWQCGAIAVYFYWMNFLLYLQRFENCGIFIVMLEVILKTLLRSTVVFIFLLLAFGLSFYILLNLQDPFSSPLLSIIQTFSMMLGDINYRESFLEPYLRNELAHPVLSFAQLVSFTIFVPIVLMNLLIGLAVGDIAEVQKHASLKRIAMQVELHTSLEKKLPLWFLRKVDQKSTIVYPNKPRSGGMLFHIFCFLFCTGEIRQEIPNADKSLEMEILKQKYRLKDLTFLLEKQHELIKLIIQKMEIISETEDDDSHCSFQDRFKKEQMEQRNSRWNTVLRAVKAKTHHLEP
T4 sequence (Q8NER1 whole entry): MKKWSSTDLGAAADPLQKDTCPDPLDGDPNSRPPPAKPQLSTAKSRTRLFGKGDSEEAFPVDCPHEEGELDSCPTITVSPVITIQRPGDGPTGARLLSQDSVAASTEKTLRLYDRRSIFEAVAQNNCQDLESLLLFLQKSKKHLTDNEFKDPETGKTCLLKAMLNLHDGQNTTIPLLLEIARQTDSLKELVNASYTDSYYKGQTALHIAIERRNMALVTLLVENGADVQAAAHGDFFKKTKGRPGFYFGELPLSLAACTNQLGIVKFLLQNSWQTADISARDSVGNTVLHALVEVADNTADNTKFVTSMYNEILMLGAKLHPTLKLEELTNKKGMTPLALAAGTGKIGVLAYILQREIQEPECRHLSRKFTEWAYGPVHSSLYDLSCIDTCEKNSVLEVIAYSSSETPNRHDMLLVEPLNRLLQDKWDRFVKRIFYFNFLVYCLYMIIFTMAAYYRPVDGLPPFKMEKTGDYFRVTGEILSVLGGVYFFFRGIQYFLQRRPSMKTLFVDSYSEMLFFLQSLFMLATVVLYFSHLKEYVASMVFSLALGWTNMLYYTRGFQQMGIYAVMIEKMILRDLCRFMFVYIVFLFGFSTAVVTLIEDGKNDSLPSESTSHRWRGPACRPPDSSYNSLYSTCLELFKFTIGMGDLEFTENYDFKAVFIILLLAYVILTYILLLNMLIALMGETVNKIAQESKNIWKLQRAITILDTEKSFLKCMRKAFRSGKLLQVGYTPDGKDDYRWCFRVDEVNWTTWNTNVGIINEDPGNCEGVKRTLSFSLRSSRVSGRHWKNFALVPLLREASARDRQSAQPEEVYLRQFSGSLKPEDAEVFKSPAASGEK

Structure (SMILES): CCN(CCc1ccc(Nc2nc(-c3ccccc3)cs2)cc1)Cc1ccccc1 [Compound 16-8/18hy]
- Ca2+ transience on TRPV3 stimulation (human TRPV3): not affected
- inhibitory activity against human TRPA1 (human TRPA1): inhibitory activity
- Ca2+ transience on TRPV2 stimulation (human TRPV2): not affected
- inhibition of TRPV4-mediated calcium influx (peak calcium concentration in the cells) (TRPV4): did not show enhanced inhibition over 16-8
- Ca2+ transience on TRPV1 stimulation (human TRPV1): not affected
- formalin-induced nocifensive behavior at the 45-min time-point ([1]; 0.5 mM/10 μL, 45-min time-point): reversal to control levels
- formalin-induced nocifensive behavior, time course ([1]; 0.5 mM/10 μL, FIG. 21D): significantly attenuated nocifensive behavior
- formalin-induced nocifensive behavior, quantitation, in particular second phase ([1]; compounds pre-injected at 0.5 mM/10 μL into whiskerpad 15 min before 4% formalin): significant attenuation of nocifensive behavior

Structure (SMILES): CC(C)C[C@@H]1NC(=O)[C@@H](C(C)C)NC(=O)[C@@H]2CCCN2C(=O)[C@@H](CC(=O)O)NC(=O)[C@@H](Cc2c[nH]c3ccccc23)NC1=O [BQ123] (cyclo(L[dW][dD]P[dV]))
- ET1-augmented, UVB-induced Ca++ transients [2]: attenuated

Structure (SMILES): C=C(C)CCO[P@@](=O)(O)OP(=O)(O)O [IPP, isopentenyl pyrophosphate]
- UVB-evoked Ca++ signaling (ΔF/F0) [2]: no effect; also recorded: not inhibited

Structure (SMILES): CCN(CCc1ccc(Nc2nc(-c3cccnc3)cs2)cc1)Cc1ccccc1 [Compound 16-18]
- inhibition of TRPV4-mediated calcium influx (peak calcium concentration in the cells) (TRPV4): most potent

Structure (SMILES): CC(C)NCCN(C(C)C)S(=O)(=O)c1ccc(Cl)cc1Cl [RN1734]
- ET1 secretion into supernatant (relative ET1 concentration) (ET1 [3]): significant down-regulation
- ET1 immunoreactivity (ET1 [4]): diminished; also recorded: significant down-regulation

Structure (SMILES): CCCC[C@@H](NC(=O)[C@@H](Cc1cn(C(=O)OC)c2ccccc12)NC(=O)[C@H](CC(C)(C)C)NC(=O)N1[C@H](C)CCC[C@@H]1C)C(=O)O [BQ788]
- ET1-augmented, UVB-induced Ca++ transients [2]: attenuated

Structure (SMILES): O=C(O)C(Cc1ccc2c(c1)oc1ccccc12)NCP(=O)(O)O (centres unmarked) [CGS35066]
- ET1 secretion into supernatant (relative ET1 concentration) (ET1 [3]): down-regulation
- UVB-evoked Ca++ signaling (ΔF/F0) [2]: significantly diminished; also recorded: significant attenuation
- ET1 immunoreactivity (ET1 [4]): significant down-regulation

Structure (SMILES): COc1ccc2c(c1)CC[C@@H]1[C@@H]2CC[C@]2(C)[C@@H](NCCCCCCN3C(=O)C=CC3=O)CC[C@@H]12 [Compound U73122]
- ET1 secretion into supernatant (relative ET1 concentration) (ET1 [3]): down-regulation
- UVB-evoked Ca++ signaling (ΔF/F0) [2]: virtually eliminated; also recorded: strongly reduced
- ET1 immunoreactivity (ET1 [4]): dampened ET1 expression; also recorded: significant down-regulation
